Test results from ChEMBL document CHEMBL5143643, “Development of disulfide-functionalized peptides covalently binding G protein-coupled receptors” (Bioorg Med Chem, 2022).
pKi: −log10 of the molar value. *1 amine or outer side, *2 acyl side, *3 side chain or, on linkers, in order; H or OH if unused. Where a SMILES comes first, the peptide text is derived from it. Cysteamine = C(CS[*:2])N[*:1]

How the values were obtained:
[1] = molecular target: T1, Neurotensin receptor type 1 (Homo sapiens, UniProt P30989); test: Displacement of [3H]NT(8-13) from human NTSR1 F2.65C mutant expressed in HEK293 cell membranes by radioligand displacement assay; parameters: species or system Cell membrane
Target sequence in this assay (P30989 whole entry, looked up): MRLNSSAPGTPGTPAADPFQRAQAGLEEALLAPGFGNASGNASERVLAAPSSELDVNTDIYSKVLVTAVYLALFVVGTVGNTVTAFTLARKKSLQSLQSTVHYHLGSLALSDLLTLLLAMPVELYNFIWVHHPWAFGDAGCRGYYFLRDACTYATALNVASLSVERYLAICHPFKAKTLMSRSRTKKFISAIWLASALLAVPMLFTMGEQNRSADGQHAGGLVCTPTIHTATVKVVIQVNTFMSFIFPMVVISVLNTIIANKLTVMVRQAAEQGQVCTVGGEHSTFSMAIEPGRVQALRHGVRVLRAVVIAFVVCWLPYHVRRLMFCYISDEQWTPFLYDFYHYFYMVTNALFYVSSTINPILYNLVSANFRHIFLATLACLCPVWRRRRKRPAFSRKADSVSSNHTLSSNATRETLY

[2] = molecular target: T1, Neurotensin receptor type 1; test: Displacement of [3H]neurotensin from human NTSR1 expressed in CHO cell membranes by radioligand depletion assay; parameters: species or system Cell membrane
Target sequence in this assay (P30989 whole entry): as the sequence (P30989 whole entry, looked up) above

[3] = molecular target: T1, Neurotensin receptor type 1; test: Displacement of [3H]NT(8-13) from human NTSR1 F2.65C mutant expressed in HEK293 cell membranes assessed as amount of blocking at 1 uM incubated for 120 mins by radioligand depletion assay; conditions: Cell membrane
Target sequence in this assay (P30989 whole entry): as the sequence (P30989 whole entry, looked up) above

[4] = molecular target: Neurotensin receptor type 2 (Homo sapiens, UniProt O95665); test: Displacement of [3H]NT(8-13) from human NTSR2 expressed in HEK293 cell membranes by radioligand displacement assay; parameters: species or system Cell membrane
Sequence of Neurotensin receptor type 2 (O95665 whole entry): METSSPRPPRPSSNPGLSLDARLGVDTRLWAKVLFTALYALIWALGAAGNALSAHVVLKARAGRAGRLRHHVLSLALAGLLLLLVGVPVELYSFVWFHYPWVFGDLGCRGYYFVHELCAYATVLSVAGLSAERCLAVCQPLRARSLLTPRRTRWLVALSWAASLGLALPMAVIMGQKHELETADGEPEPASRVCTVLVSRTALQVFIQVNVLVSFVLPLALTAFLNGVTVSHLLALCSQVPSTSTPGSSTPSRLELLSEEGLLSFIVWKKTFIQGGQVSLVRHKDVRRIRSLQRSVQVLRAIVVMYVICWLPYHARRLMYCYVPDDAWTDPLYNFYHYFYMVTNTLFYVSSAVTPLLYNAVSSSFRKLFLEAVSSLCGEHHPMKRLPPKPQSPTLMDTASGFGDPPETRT

| pKi [1] | pKi [2] | Activity [3] | pKi [4] | pKi ([2]; cho) | Structure (SMILES) |
| --- | --- | --- | --- | --- | --- |
| 7.55 | 7.31 | 61% | 7.26 |  | CC(C)C[C@H](NC(=O)[C@H](CSSCCN)NC(=O)[C@H](Cc1ccc(O)cc1)NC(=O)[C@@H]1CCCN1C(=O)[C@H](CCCNC(=N)N)NC(=O)[C@@H](N)CCCNC(=N)N)C(=O)O |
| 7.29 | 8.62 | 6% | 8.38 |  | CC[C@H](C)[C@H](NC(=O)[C@H](Cc1ccc(O)cc1)NC(=O)[C@@H]1CCCN1C(=O)[C@H](CCCNC(=N)N)NC(=O)[C@@H](N)CCCNC(=N)N)C(=O)N[C@@H](CC(C)C)C(=O)N[C@@H](CSSCCN)C(=O)O (H-RRPYILC(Cysteamine)-OH) |
| 7.82 |  | 88% | 7.77 | 8.28 | CC(C)C[C@H](NC(=O)[C@@H](CCSSCCN)NC(=O)[C@H](Cc1ccc(O)cc1)NC(=O)[C@@H]1CCCN1C(=O)[C@H](CCCNC(=N)N)NC(=O)[C@@H](N)CCCNC(=N)N)C(=O)O |
| 7.40 |  | -2% | 8.28 | 8.15 | CC[C@H](C)[C@H](NC(=O)[C@H](Cc1ccc(O)cc1)NC(=O)[C@@H]1CCCN1C(=O)[C@H](CCCNC(=N)N)NC(=O)[C@@H](N)CCCNC(=N)N)C(=O)N[C@@H](CC(C)C)C(=O)N[C@H](CCSSCCN)C(=O)O |
